Test results published in ChEMBL document CHEMBL1201862, “PubChem BioAssay data set” (2004).
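Interpolation was linear, between the two tested concentrations surrounding the appropriate level; five concentrations were tested over 48 hours in 96-well plates. GI50: concentration for 50% inhibition of growth.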 Active and inactive are the calls of the source. No stated cut-off is given here; in the data, active = GI50 up to about 1.1 µM and inactive = higher.

How the values were obtained:
Assay in all cases: NCI anticancer screen, dose series, 48 h
NCI-H460 = system: NCI-H460
SW-620 = system: SW-620
NCI-H23 = system: NCI-H23
CCRF-CEM = system: CCRF-CEM
M14 = system: M14
HOP-62 = system: HOP-62
TK-10 = system: TK-10
HCT-15 = system: HCT-15
MDA-MB-231 = system: MDA-MB-231
KM12 = system: KM12
SNB-19 = system: SNB-19
HCT-116 = system: HCT-116
RXF 393 = system: RXF 393
SF-539 = system: SF-539
OVCAR-3 = system: OVCAR-3
NCI-H226 = system: NCI-H226
UO-31 = system: UO-31
MDA-MB-435 = system: MDA-MB-435
K562 = system: K562
ACHN = system: ACHN

SMILES | GI50 (NCI-H460) | GI50 (SW-620) | GI50 (NCI-H23) | GI50 (CCRF-CEM) | GI50 (M14) | GI50 (HOP-62) | GI50 (TK-10) | GI50 (HCT-15) | GI50 (MDA-MB-231) | GI50 (KM12) | GI50 (SNB-19) | GI50 (HCT-116) | GI50 (RXF 393) | GI50 (SF-539) | GI50 (OVCAR-3) | GI50 (NCI-H226) | GI50 (UO-31) | GI50 (MDA-MB-435) | GI50 (K562) | GI50 (ACHN)
Oc1ccccc1/C=N/Nc1nnc2c3ccccc3c3ccccc3c2n1 | 41.8 µM (inactive) | 82.4 µM (inactive) | > 100 µM (inactive) | > 100 µM (inactive) | > 100 µM (inactive) | 42.6 µM (inactive) | 45.4 µM (inactive) | 73.6 µM | > 100 µM (inactive) | 71.4 µM (inactive) | > 100 µM (inactive) | > 100 µM (inactive) | 25.1 µM (inactive) | > 100 µM (inactive) | 14.6 µM (inactive) | > 100 µM (inactive) | > 100 µM (inactive) | 28.1 µM (inactive) | > 100 µM (inactive) | > 100 µM (inactive)
CN(O)C(=O)Cc1ccc(OCc2cccc(Cl)c2)cc1 | > 100 µM (inactive) | > 100 µM (inactive) | > 100 µM (inactive) | > 100 µM (inactive) | > 100 µM (inactive) | > 100 µM (inactive) | > 100 µM (inactive) | > 100 µM | > 100 µM (inactive) | > 100 µM (inactive) | > 100 µM (inactive) | > 100 µM (inactive) | > 100 µM (inactive) | > 100 µM (inactive) | > 100 µM (inactive) | > 100 µM (inactive) | > 100 µM (inactive) | > 100 µM (inactive) | > 100 µM (inactive) | > 100 µM (inactive)
CN(C)/C=N\c1nncc2[nH]nnc12 | > 100 µM (inactive) | > 100 µM (inactive) | > 100 µM (inactive) | 26.7 µM (inactive) | > 100 µM (inactive) | > 100 µM (inactive) | > 100 µM (inactive) | > 100 µM | > 100 µM (inactive) | > 100 µM (inactive) | > 100 µM (inactive) | > 100 µM (inactive) | > 100 µM (inactive) | > 100 µM (inactive) | > 100 µM (inactive) | > 100 µM (inactive) | > 100 µM (inactive) | > 100 µM (inactive) | > 100 µM (inactive) | > 100 µM (inactive)
O=C(OC(/C=C/c1ccccc1)P1(=O)N(Cc2ccccc2)[C@@H]2CCCC[C@H]2N1Cc1ccccc1)c1ccccc1 (stereo not given in full) | 2.91 µM (inactive) | 4.57 µM (inactive) | 3.09 µM (inactive) | 2.52 µM (inactive) | 3.69 µM (inactive) | 5.38 µM (inactive) | 4.82 µM (inactive) | 3.44 µM | 2.82 µM (inactive) | 3.57 µM (inactive) | 5.43 µM (inactive) | 2.87 µM (inactive) | 3.78 µM (inactive) | 3.17 µM (inactive) | 3.93 µM (inactive) | 6.43 µM (inactive) | 3.34 µM (inactive) | 3.66 µM (inactive) | 3.37 µM (inactive) | 3.81 µM (inactive)
Cc1ccc(S(=O)(=O)N/N=C2\CCC3(O)CC2(C)CCC2C3CC2(C)C)cc1 (stereo not given) | 19.3 µM (inactive) | 78 µM (inactive) | 49.5 µM (inactive) | > 100 µM (inactive) | 47.9 µM (inactive) | 92.7 µM (inactive) | 29.2 µM (inactive) | 36.2 µM | 47.8 µM (inactive) | 35.6 µM (inactive) | 56.6 µM (inactive) | 30.7 µM (inactive) | 52.8 µM (inactive) | 51.1 µM (inactive) | 37.8 µM (inactive) | 27.4 µM (inactive) | 24.4 µM (inactive) | 40.5 µM (inactive) | > 100 µM (inactive) | 31.8 µM (inactive)
CC(C)(CN1CCCCC1)C(=O)CC(SCCS(=O)(=O)O)c1ccccc1 (stereo not given) | 11.9 µM (inactive) | 11.1 µM (inactive) | > 10 µM (inactive) | 5.16 µM (inactive) | 9.38 µM (inactive) | 30.8 µM (inactive) | 16.9 µM (inactive) | 8.57 µM | 13.7 µM (inactive) | 18.5 µM (inactive) | 17.5 µM (inactive) | 5.9 µM (inactive) | 10.8 µM (inactive) | 12.6 µM (inactive) | 5.87 µM (inactive) | 27.7 µM (inactive) | 12.1 µM (inactive) | 11.3 µM (inactive) | 2.7 µM (inactive) | 16.9 µM (inactive)
CCCCc1ccc(Nc2nc(Cl)c3c(ncn3C3CC(Oc4ccc(C)cc4)C(COc4ccc(C)cc4)O3)n2)cc1 (stereo not given) | > 100 µM (inactive) | > 100 µM (inactive) | > 100 µM (inactive) | > 100 µM (inactive) | > 100 µM (inactive) | > 100 µM (inactive) | > 100 µM (inactive) | > 100 µM | > 100 µM (inactive) | > 100 µM (inactive) | > 100 µM (inactive) | > 100 µM (inactive) | > 100 µM (inactive) | 61 µM (inactive) | > 100 µM (inactive) | > 100 µM (inactive) | > 100 µM (inactive) | > 100 µM (inactive) | > 100 µM (inactive) | > 100 µM (inactive)
C#CCn1c(=O)ccn(/C(=C\C(=O)OCC)C(=O)OCC)c1=O | 2.63 µM (inactive) | 1.68 µM (inactive) | 14.9 µM (inactive) | 0.381 µM (active) | 4.32 µM (inactive) | 23.5 µM (inactive) | 1.81 µM (inactive) | 1.51 µM | 18.1 µM (inactive) | 22.8 µM (inactive) | 19.9 µM (inactive) | 5.53 µM (inactive) | 2.08 µM (inactive) | 1.86 µM (inactive) | 5.61 µM (inactive) | 19.9 µM (inactive) | 13.5 µM (inactive) | 7.33 µM (inactive) | 3.54 µM (inactive) | 1.64 µM (inactive)
CCOC(=O)/C(C#N)=C/c1ccc2c(c1)CC1(C2)Cc2cc(CC)c(C(C)O)cc2C1 (stereo not given) | 23.2 µM (inactive) | 5.38 µM (inactive) | 13.5 µM (inactive) | 4.61 µM (inactive) | 5.32 µM (inactive) | 14.2 µM (inactive) | 25.5 µM (inactive) | 5.24 µM | 10.5 µM (inactive) | 19.6 µM (inactive) | 15.1 µM (inactive) | 4.27 µM (inactive) | 6.79 µM (inactive) | 9.82 µM (inactive) | 8.04 µM (inactive) | 19.3 µM (inactive) | 21.4 µM (inactive) | 2.14 µM (inactive) | 4.31 µM (inactive) | 30.3 µM (inactive)
COc1ccc(NC(=S)NC(=O)c2ccc3c(c2)Sc2ccccc2O3)c([N+](=O)[O-])c1 | 43.9 µM (inactive) | 0.387 µM (active) | 83.2 µM (inactive) | 36.4 µM (inactive) | 39.1 µM (inactive) | 33 µM (inactive) | 17.9 µM (inactive) | 24 µM | 22.9 µM (inactive) | 60.1 µM (inactive) | 21.9 µM (inactive) | 28.9 µM (inactive) | 19.3 µM (inactive) | 24.9 µM (inactive) | 22.6 µM (inactive) | > 100 µM (inactive) | 25.6 µM (inactive) | 55.8 µM (inactive) | 64.1 µM (inactive) | 21.4 µM (inactive)
CC1OC(OC2C(O[C@H]3CC[C@@]4(C)C(=CC[C@H]5[C@@H]6C[C@@H]7O[C@]8(CC[C@@H](C)CO8)[C@@H](C)[C@@H]7[C@@]6(C)CC[C@@H]54)C3)OC(CO)C(O)C2O)C(O)C(O)C1O (stereo not given in full) | 0.327 µM (active) | 0.681 µM (active) | 2.28 µM (inactive) | 0.507 µM (active) | 1.22 µM (inactive) | 1.34 µM (inactive) | 1.53 µM (inactive) | 1.96 µM | 1.14 µM (inactive) | 0.838 µM (active) | 1.01 µM (active) | 1.54 µM (inactive) | 1.54 µM (inactive) | 1.21 µM (inactive) | 3.4 µM (inactive) | 2.49 µM (inactive) | 0.638 µM (active) | 1.41 µM (inactive) | 1.57 µM (inactive) | 1.58 µM (inactive)
O=C1C=CC(=O)c2c1ccc1c3ccccc3n(CCCCCCCCCCCCn3c4ccccc4c4ccc5c(c43)C(=O)C=CC5=O)c21 | > 100 µM (inactive) | > 100 µM (inactive) | > 100 µM (inactive) | 26.3 µM (inactive) | > 100 µM (inactive) | > 85.5 µM (inactive) | > 100 µM (inactive) | > 100 µM | > 100 µM (inactive) | > 100 µM (inactive) | > 100 µM (inactive) | > 100 µM (inactive) | > 100 µM (inactive) | > 100 µM (inactive) | > 100 µM (inactive) | > 100 µM (inactive) | > 100 µM (inactive) | > 100 µM (inactive) | > 72.4 µM (inactive) | > 100 µM (inactive)
CCCCC1Cc2cc(O)ccc2-c2n1c1cc(O)ccc1[n+]2C.CCCCC1Cc2cc(O)ccc2-c2n1c1ccc(O)cc1[n+]2C (stereo not given) | 37.9 µM (inactive) | 32.2 µM (inactive) | 2.59 µM (inactive) | 9.59 µM (inactive) | 37.9 µM (inactive) | 43.8 µM (inactive) | 22.1 µM (inactive) | 51.8 µM | 48 µM (inactive) | 28.2 µM (inactive) | 1.49 µM (inactive) | 36.9 µM (inactive) | 34 µM (inactive) | 40.3 µM (inactive) | 10.7 µM (inactive) | 41 µM (inactive) | 65.6 µM (inactive) | 19 µM (inactive) | 17.7 µM (inactive) | 56 µM (inactive)
CC(C)(C)OC(=O)N(CCCCN(CCCNC(=O)C(F)(F)F)C(=O)OC(C)(C)C)CCCNC(=O)C(F)(F)F | > 100 µM (inactive) | > 100 µM (inactive) | > 100 µM (inactive) | > 100 µM (inactive) | > 100 µM (inactive) | 38.7 µM (inactive) | > 100 µM (inactive) | > 100 µM | > 100 µM (inactive) | > 100 µM (inactive) | > 100 µM (inactive) | > 100 µM (inactive) | > 100 µM (inactive) | > 100 µM (inactive) | 45.3 µM (inactive) | > 100 µM (inactive) | > 100 µM (inactive) | > 100 µM (inactive) | 98.9 µM (inactive) | > 100 µM (inactive)
